Assays:
[1] = test system: Mesenchymal stem cells; assay: Differentiation into neural cells, cellular morphology under a microscope; type: cell-based, human; details: for maintenance of the morphology of neural cells: after induction of differentiation
Protocol: Mesenchymal stem cells obtained from adipose tissue used in this Example were StemPro® Adipose-derived Stem Cells (Product No. R7788-110) purchased from Invitrogen. Frozen ampoules were thawed, and cells were washed with DMEM, centrifuged at 800 RPM for 5 minutes, and cultured in DMEM containing low glucose (1000 mg/L) and supplemented with 10% fetal bovine serum (FBS).
(§1) Mesenchymal stem cells were seeded in low glucose-Dulbecco's Modified Eagle's Medium (LG-DMEM) containing 10% fetal bovine serum (FBS) at a density of 5×10^3 cell/cm2. 24 hours after seeding, the medium was replaced with fresh DMEM/F-12 (1:1 mixed medium) supplemented with 1 uM hydrocortisone, […], 1% bovine serum albumin, and 0, 1, 2, 3, 4, 5 or 8 mM lipoic acid to induce differentiation into neural cells. Moreover, 1 uM forskolin was further added to promote differentiation into neural cells.

[2] = test system: Mesenchymal stem cells; assay: Cell viability measured by MTT; type: cell-based, human
Protocol: The cell viability was measured by MTT (3-(4,5-dimethylthiazol-2-yl)-2,5-diphenyltetrazolium bromide). Specifically, MTT solution (0.0333 g/ml DMEM) was added to the neural cells cultured in Example 3 for reaction at 37° C. for 90 minutes and then removed. Then, dimethyl sulfoxide (DMSO) was added and left to stand for 10 minutes, and the resulting solution was used to measure the absorbance at 570 nm using a spectrum analyzer. Mesenchymal stem cells were seeded in low glucose-Dulbecco's Modified Eagle's Medium (LG-DMEM) containing 10% fetal bovine serum (FBS) at a density of 5×10^3 cell/cm2. 24 hours after seeding, the medium was replaced with fresh DMEM/F-12 (1:1 mixed medium) supplemented with 1 ug hydrocortisone, […], 1% bovine serum albumin, and 0, 1, 2, 3, 4, 5 or 8 mM lipoic acid to induce differentiation into neural cells. Moreover, 1 ug forskolin or […] (NGF) might be further added to enhance differentiation into neural cells. […]

[3] = test system: Mesenchymal stem cells; assay: RT-PCR of neuron-related genes (MAP2, DCX, Tau, NeuroD1, NSE, Nestin, NF-L); type: cell-based, human; details: 5 days after differentiation, compared to the control
Protocol: as §1
The total RNA was recovered and isolated using TRIzol® solution (Invitrogen, USA), and then 1 ug RNA was used to synthesize cDNA using an RT-PCR kit (Clontech, USA). The genes to be analyzed were MAP2, DCX, Tau, NeuroD1, NSE, Nestin and NF-L, and the primers used for the analysis are shown in the following Table 1.

[4] = test system: Mesenchymal stem cells; assay: Western blot analysis of neuron-associated proteins (NSE, Nestin, NF-L); type: cell-based, human; details: 5 days after differentiation, compared to the control
Protocol: as §1
The neural cells cultured in Example 3 were washed with phosphate-buffered saline (PBS) and lysed with radioimmunoprecipitation (RIPA) buffer containing protease inhibitor. The total protein was measured using a BCA® Protein Assay kit (Pierce, USA), and 10 ug protein was electrophoresed on a 10% polyacrylamide gel and transferred to a nitrocellulose membrane. Then, the membrane was blocked with Tris-buffered saline (TBS) containing 5% skim milk and 0.5% Tween® 20 at room temperature for 30 minutes and reacted with antibodies such as anti-NSE, anti-Nestin, Anti-NF-L (Cell Signaling, USA), and β-actin (Sigma, USA) at 4° C. for 16 hours. Subsequently, the membrane was reacted with an anti-mouse or anti-rabbit secondary antibody at room temperature for 1 hour, exposed to ECL™ (Pierce™ Biotechnology, USA), and then imaged using a ChemiDoc™ XRS+Imaging System (BioRad®, USA).

[5] = test system: Mesenchymal stem cells; assay: Immunofluorescence staining of neuron-associated proteins; type: cell-based, human; details: all cases treated with lipoic acid, 5 days after differentiation, compared to the control
Protocol: as §1
The neural cells cultured in Example 3 were fixed on glass coverslips with 4% paraformaldehyde for 10 minutes, blocked with PBS containing 1.5% bovine serum albumin (BSA), and then permeabilized with PBS containing 0.5% Triton™ X-100. Then, the cells were reacted with primary antibodies such as anti-NF-L, anti-MAP2, anti-GFAP, anti-NeuroD1 (Cell Signaling, USA), and anti-tau (Biosource, USA) at 4° C. for 16 hours. Then, the cells were washed with PBS for 10 minutes and reacted with species-specific secondary antibodies such as anti-rabbit IgG-Alexa Fluor® 488 or anti-mouse IgG-Alexa Fluor® 555 conjugate at room temperature for 1 hour. Then, the stained cells were mounted with Vectashield® mounting medium containing DAPI and contrast stained. The cells were examined using a Confocal Laser Scanning Microscope (LSM 510-meta, Germany), and the results are shown in FIG. 9.

[6] = test system: human cells; details: serum-free culture of human cells; cited from earlier work

Compound | maintenance of the morphology of neural cells [1] | morphological changes of neural cells ([1]; lipoic acid at 1 mM, 5 days, with hydrocortisone, insulin, 1% bovine serum albumin) | morphological changes of neural cells (dendrite formation) ([1]; lipoic acid at more than 2 mM, 5 days, with 1 uM hydrocortisone, […], 1% bovine serum albumin) | cell viability ([2]; human, 4 mM) [%] | cell viability ([2]; human, 8 mM) [%] | expression of neuron-related genes (mRNAs) ([3]; 4 mM lipoic acid) | expression of neuron-related genes (mRNAs) ([3]; 8 mM lipoic acid) | expression of neuron-associated proteins (Western blot) ([4]; 4 mM lipoic acid) | expression of neuron-associated proteins (Western blot) ([4]; 8 mM lipoic acid) | expression of neuron-associated proteins (immunofluorescence) [5] | concentration known to cause cell apoptosis [6] [µM] | cell viability ([2]; 5 days, 200 ug butylated hydroxyanisole (control))
O=C(O)CCCC[C@@H]1CCSS1 (racemic) [lipoic acid] | well maintained up to 5 days | no change | dendrites were well formed | 61.4 | 51.4 | further increased | increased | further increased | increased | increased | ≥ 2000 | –
COc1ccc(O)c(C(C)(C)C)c1 [butylated hydroxyanisole] | destroyed after 24 hours | – | – | – | – | – | – | – | – | – | – | too low

From patent publication US9499787B2, “Method for differentiating stem cells into neurons” (Dongguk University Industry-Academic Cooperation Foundation, priority 2012, dated 2016)
